Data taken from patent US20260159520A1, “HETEROBIFUNCTIONAL COMPOUNDS AND METHODS OF TREATING DISEASE” (Halda Therapeutics OpCo, Inc., priority 2022, published 2026).

Assays:
[1] = tested on: T-Rex 293 cell line SC cells having increased expression of progesterone receptor isoform B protein; test: Cellular growth inhibition, T-Rex 293 SC cells with doxycycline (increased progesterone receptor isoform B expression); format: cell-based; conditions: with 10 ng/mL doxycycline (increased progesterone receptor isoform B), 72 hours, CellTiter-Glo 2.0
Protocol: (§1) The following types of cells were prepared for this experiment: (i) a T-Rex 293 cell line having increased expression of progesterone receptor isoform B protein due to exposure to doxycycline and (ii) a T-Rex 293 cell line lacking increased expression of progesterone receptor isoform B protein. Ability of the test compounds to inhibit proliferation of the foregoing cell types was evaluated according to the procedures set forth below.
(§2) The doxycycline-inducible progesterone receptor isoform B protein expressing cell line was established using the following protocol: T-Rex 293 cells were purchased from Invitrogen (Cat #R71007) and transfected using Lipofectamine 2000 with the wild-type progesterone receptor B protein sequence cloned into the pcDNA4/TO vector. Transfected cells were selected using 400 μg/mL Zeocin (Invitrogen Cat #R25001). Following selection, single clones were raised and maintained in Dulbecco's Modified Eagle Medium (DMEM) supplemented with 10% w/w Tetracycline-free fetal bovine serum (FBS) and 250 μg/mL Zeocin. Clones were analyzed for expression of progesterone receptor isoform B protein in the presence and absence of 10 ng/mL doxycycline (Sigma Cat #D9891), and a single doxycycline-inducible clone (hereinafter “SC”) was selected for use in downstream assays.
(§3) The SC cells were seeded on poly-D-lysine coated, black clear-bottom 384-well plates at 2500/well, in 25 μL Phenol Red Free Dulbecco's Modified Eagle Medium (DMEM) supplemented with 10% w/w charcoal-dextran treated fetal bovine serum (FBS) and 1% w/w pen-strep, with or without 10 ng/mL doxycycline. Pen-Strep is a commercially available mixture of penicillin G and streptomycin, which is used in mammalian cell culture media to prevent bacterial contamination. Phenol Red Free Dulbecco's Modified Eagle Medium (DMEM) supplemented with 10% w/w charcoal-dextran treated fetal bovine serum (FBS) and 1% w/w pen-strep, with or without 10 ng/mL doxycycline is herein referred to as Treatment Medium. Following seeding of cells in the plates, the plates were spun at 300×g for 30 seconds, then equilibrated to room temperature for 30 minutes, and then deposited in a humidified tissue culture incubator maintained at 37° C. with 5% CO2.
(§4) At 24 hours after seeding of the cells, dilutions of test compound were prepared in DMSO and dissolved in Treatment Medium, to achieve a final DMSO concentration of 0.5% w/w, thereby providing the Test Compound Solution. A 25 μL aliquot of the Test Compound Solution was added to cells in the well plates. An equal volume of a solution containing DMSO and Treatment Medium was used as a negative control. Following treatment of cells with Test Compound Solution or said equal volume of a solution containing DMSO and Treatment Medium, the plates were spun at 300×g for 30 seconds, and then left in an incubator for 72 hours.
(§5) At the end of the treatment duration, cell viability was quantified with CellTiter-Glo 2.0 reagent (Promega Cat #G9243). For this purpose, plates were equilibrated to room temperature for 30 minutes, and then 25 μL of CellTiter-Glo 2.0 reagent was added to cells in the plate wells. Plates were then agitated on a shaker for two minutes at 500 rpm and subsequently incubated at room temperature for 10 minutes. Following incubation, the plates were spun at 3000×g for 30 seconds, then sealed with an optical adhesive cover, and luminescence readings were measured with an EnVision Plate Reader (Perkin Elmer).
(§6) Data was normalized using zero luminescence for baseline. A four-parameter non-linear regression curve fit was applied to dose-response data in GraphPad Prism data analysis software to determine the half-maximal growth inhibitory concentration (GI50) for each test compound.

[2] = tested on: T-Rex 293 cell line SC3 cells having increased expression of androgen receptor protein; test: Cellular growth inhibition, T-Rex 293 SC3 cells with doxycycline (increased androgen receptor expression); format: cell-based; conditions: with 10 ng/mL doxycycline (increased androgen receptor), 72 hours, CellTiter-Glo 2.0
Summary of the method: (§7)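 Growth inhibition is measured in an inducible AR-expressing T-Rex 293 clone, SC3, cultured with or without 10 ng/mL doxycycline in hormone-depleted medium. Test compounds are applied for 72 hours. GI50 values derive from CellTiter-Glo 2.0 signal fitted by four-parameter regression.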

[3] = tested on: T-Rex 293 cell line SC cells lacking increased expression of progesterone receptor isoform B protein; test: Cellular growth inhibition, T-Rex 293 SC cells without doxycycline; format: cell-based; conditions: not exposed to doxycycline, 72 hours, CellTiter-Glo 2.0
Protocol: as §1, §2, §3, §4, §5, §6

[4] = tested on: T-Rex 293 cell line SC3 cells lacking increased expression of androgen receptor protein; test: Cellular growth inhibition, T-Rex 293 SC3 cells without doxycycline; format: cell-based; conditions: not exposed to doxycycline, 72 hours, CellTiter-Glo 2.0
Summary of the method: as §7

[5] = target: T1, androgen receptor (Homo sapiens, UniProt P10275); test: Binding affinity to androgen receptor ([3H]methyltrienolone radioligand, cell cytosol); conditions: Table 6
T1 construct: endogenous in cells; host or cells: unnamed cells (cytosol fraction)
T1 sequence (P10275 1-920): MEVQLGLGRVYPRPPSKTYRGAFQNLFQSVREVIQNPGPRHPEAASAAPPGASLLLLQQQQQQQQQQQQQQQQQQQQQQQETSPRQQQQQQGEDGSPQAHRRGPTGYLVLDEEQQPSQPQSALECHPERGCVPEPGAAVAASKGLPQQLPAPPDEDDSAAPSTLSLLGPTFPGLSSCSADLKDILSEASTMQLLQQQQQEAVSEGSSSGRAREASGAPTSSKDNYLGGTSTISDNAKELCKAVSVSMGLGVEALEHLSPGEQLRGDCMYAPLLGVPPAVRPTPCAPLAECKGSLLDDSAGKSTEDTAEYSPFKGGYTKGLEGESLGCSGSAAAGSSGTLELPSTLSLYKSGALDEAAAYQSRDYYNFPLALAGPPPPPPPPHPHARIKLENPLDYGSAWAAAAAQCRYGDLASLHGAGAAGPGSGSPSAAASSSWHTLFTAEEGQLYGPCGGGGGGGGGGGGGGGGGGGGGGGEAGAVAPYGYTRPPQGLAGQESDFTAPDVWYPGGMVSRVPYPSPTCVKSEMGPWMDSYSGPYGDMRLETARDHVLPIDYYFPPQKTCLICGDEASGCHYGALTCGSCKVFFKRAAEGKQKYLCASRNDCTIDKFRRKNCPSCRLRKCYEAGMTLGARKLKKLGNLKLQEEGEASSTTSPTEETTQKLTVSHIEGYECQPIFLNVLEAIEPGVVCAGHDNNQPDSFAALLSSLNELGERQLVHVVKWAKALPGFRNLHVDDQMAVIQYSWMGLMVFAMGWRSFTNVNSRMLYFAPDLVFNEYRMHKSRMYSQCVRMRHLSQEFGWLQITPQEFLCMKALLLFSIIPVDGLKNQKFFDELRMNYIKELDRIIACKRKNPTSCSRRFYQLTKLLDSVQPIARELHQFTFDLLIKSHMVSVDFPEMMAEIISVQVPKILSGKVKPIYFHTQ
Protocol: Fractions of cell cytosol ([…]) were incubated for 24 hr at 4° C. with 1 nM [^3H]methyltrienolone in the absence or presence of the test compound in a buffer containing 25 mM Hepes-Tris (pH 7.4), 1 mM EDTA, 10 mM Na2MoO4, 2 mM DTT, 5 μM triamcinolone acetonide, and 10% glycerol. Nonspecific binding was determined in the presence of 1 μM testosterone. Following incubation, the samples were filtered rapidly under vacuum through glass fiber filters (GF/B, Packard) presoaked with 0.3% PEI and rinsed several times with ice-cold 50 mM Tris-HCl using a 96-sample cell harvester (Unifilter, Packard). The filters were dried then counted for radioactivity in a scintillation counter (Topcount, Packard) using a scintillation cocktail (Microscint 0, Packard). The results are expressed as a percent inhibition of the control radioligand specific binding. The standard reference compound is testosterone, which is tested in each experiment at several concentrations to obtain a competition curve from which its IC50 is calculated.

[6] = tested on: VCaP cells; test: Cellular growth inhibition assay for VCaP cells; format: cell-based; conditions: Homo sapiens, 72 hours, CellTiter-Glo 2.0
[7] = target: T2, CDK9 (Homo sapiens, UniProt P50750); test: KdELECT binding assay, CDK9; conditions: CDK9, Table 7
T2 construct: made in house; host or cells: E. coli BL21-derived host (T7 phage) or HEK-293 ('BEK-293' [sic])
T2 sequence (P50750 whole entry): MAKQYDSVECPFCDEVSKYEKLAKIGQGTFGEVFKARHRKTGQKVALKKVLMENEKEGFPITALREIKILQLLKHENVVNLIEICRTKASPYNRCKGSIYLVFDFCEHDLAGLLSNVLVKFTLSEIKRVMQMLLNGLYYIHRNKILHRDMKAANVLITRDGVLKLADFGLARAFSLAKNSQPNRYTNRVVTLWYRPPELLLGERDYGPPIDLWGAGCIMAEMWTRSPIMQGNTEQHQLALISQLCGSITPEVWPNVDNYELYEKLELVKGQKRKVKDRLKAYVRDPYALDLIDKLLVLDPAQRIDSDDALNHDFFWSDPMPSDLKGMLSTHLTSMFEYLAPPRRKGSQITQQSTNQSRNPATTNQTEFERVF
Protocol: Compounds were tested using a KdELECT. Kinase-tagged T7 phage strains were prepared in an E. coli host derived from the BL21 strain. E. coli were grown to log-phase and infected with T7 phage and incubated with shaking at 32° C. until lysis. The lysates were centrifuged and filtered to remove cell debris. The remaining kinases were produced in BEK-293 cells and subsequently tagged with DNA for qPCR detection. Streptavidin-coated magnetic beads were treated with biotinylated small molecule ligands for 30 minutes at room temperature to generate affinity resins for kinase assays. The liganded beads were blocked with excess biotin and washed with blocking buffer (SeaBlock (Pierce), 1% BSA, 0.05% Tween 20, 1 mM DTT) to remove unbound ligand and to reduce non-specific binding. Binding reactions were assembled by combining kinases, liganded affinity beads, and test compounds in 1× binding buffer (20% SeaBlock, 0.17×PBS, 0.05% Tween 20, 6 mM DTT). Test compounds were prepared as 111× stocks in 100% DMSO. Kd values were determined using an 11-point 3-fold compound dilution series with three DMSO control points. All compounds for Kd measurements are distributed by acoustic transfer (non-contact dispensing) in 100% DMSO. The compounds were then diluted directly into the assays such that the final concentration of DMSO was 0.9%. All reactions performed in polypropylene 384-well plate. Each was a final volume of 0.02 mL. The assay plates were incubated at room temperature with shaking for 1 hour and the affinity beads were washed with wash buffer (lx PBS, 0.05% Tween 20). The beads were then re-suspended in elution buffer (lx PBS, 0.05% Tween 20, 0.5 μM nonbiotinylated affinity ligand) and incubated at room temperature with shaking for 30 minutes. The kinase concentration in the eluates was measured by qPCR.

SMILES	GI50 [1]	GI50 [2]	GI50 [3]	GI50 [4]	Kd [5]	GI50 [6]	Kd [7]
CCc1cnn2c(NCc3ccc(OCCOCCOCCN(C)c4ncc(C(=O)N[C@H]5C(C)(C)[C@H](Oc6ccc(C#N)c(Cl)c6)C5(C)C)cn4)nc3)cc(N3CCCC[C@H]3CCO)nc12 [Compound I-2, N-((1r,3r)-3-(3-chloro-4-cyanophenoxy)-2,2,4,4-tetra-methylcyclobutyl)-2-((2-(2-(2-((5-(((3-ethyl-5-((S)-2-(2-hydroxyethyl)piperidin-1-yl)pyrazolo[1,5-a]pyrimidin-7-yl)amino)methyl)pyridin-2-yl)oxy)ethoxy)ethoxy)ethyl)(methyl)amino)pyrimidine-5-carboxamide]	< 500 nM	100 to 1000 nM	< 500 nM	100 to 1000 nM			
CCc1cnn2c(NCc3ccc(OCCCN4CCN(CCCN(C)c5ncc(C(=O)N[C@H]6C(C)(C)[C@H](Oc7ccc(C#N)c(Cl)c7)C6(C)C)cn5)CC4)nc3)cc(N3CCCC[C@H]3CCO)nc12 [Compound I-6, N-((1r,3r)-3-(3-chloro-4-cyanophenoxy)-2,2,4,4-tetramethylcyclobutyl)-2-((3-(4-(3-((5-(((3-ethyl-5-((S)-2-(2-hydroxyethyl)piperidin-1-yl)pyrazolo[1,5-a]pyrimidin-7-yl)amino)methyl)pyridin-2-yl)oxy)propyl)piperazin-1-yl)propyl)(methyl)amino)pyrimidine-5-carboxamide]		< 100 nM		100 to 1000 nM	< 50 nM		
CCc1cnn2c(NCc3ccc(OCCCN4CCN(CCCOC5CCN(c6ncc(C(=O)N[C@H]7C(C)(C)[C@H](Oc8ccc(C#N)c(Cl)c8)C7(C)C)cn6)CC5)CC4)nc3)cc(N3CCCC[C@H]3CCO)nc12 [Compound I-11]		< 100 nM		100 to 1000 nM	< 50 nM	< 100 nM	
CCc1cnn2c(N(C)Cc3ccc(OCCOCCOCCOCCOCCN(C)c4ncc(C(=O)N[C@H]5C(C)(C)[C@H](Oc6ccc(C#N)c(Cl)c6)C5(C)C)cn4)nc3)cc(N3CCCC[C@H]3CCO)nc12 [Compound I-12]		> 3500 nM		> 3500 nM	< 50 nM		> 2500 nM
CCc1cnn2c(N(C)Cc3ccc(OCCOCCOCCOC4CCN(c5ncc(C(=O)N[C@H]6C(C)(C)[C@H](Oc7ccc(C#N)c(Cl)c7)C6(C)C)cn5)CC4)nc3)cc(N3CCCC[C@H]3CCO)nc12 [Compound I-25]		> 3500 nM		> 3500 nM	< 50 nM		> 2500 nM
CCc1cnn2c(NCc3ccc(OCCCCCCCCOC4CCN(c5ncc(C(=O)N[C@H]6C(C)(C)[C@H](Oc7ccc(C#N)c(Cl)c7)C6(C)C)cn5)CC4)nc3)cc(N3CCCC[C@H]3CCO)nc12 [Compound I-31]		> 3500 nM		> 3500 nM	> 2500 nM		> 2500 nM
CCc1cnn2c(NCc3ccc(OCCCN4CCN(CC5CCN(c6cnc(C(=O)N[C@H]7C(C)(C)[C@H](Oc8ccc(C#N)c(Cl)c8)C7(C)C)nc6)CC5)CC4)nc3)cc(N3CCCC[C@@H]3CCO)nc12 [Compound I-58, N-((1r,3r)-3-(3-chloro-4-cyanophenoxy)-2,2,4,4-tetramethylcyclobutyl)-5-(4-((4-(3-((5-(((3-ethyl-5-((R)-2-(2-hydroxyethyl)piperidin-1-yl)pyrazolo[1,5-a]pyrimidin-7-yl)amino)methyl)pyridin-2-yl)oxy)propyl)piperazin-1-yl)methyl)piperidin-1-yl)pyrimidine-2-carboxamide]		100 to 1000 nM		< 100 nM	500 to 2500 nM	100 to 1000 nM	
CCc1cnn2c(NCc3ccc(OCCOCCN(C)C45CC(N(C)c6ncc(C(=O)N[C@H]7C(C)(C)[C@H](Oc8ccc(C#N)c(Cl)c8)C7(C)C)cn6)(C4)C5)nc3)cc(N3CCCC[C@H]3CCO)nc12 [Compound I-83]		< 100 nM		< 100 nM	< 50 nM	100 to 1000 nM	
